Columns and labels:
[1] = tested on: caspase-3/7 in SW480 cells; assay: Caspase-3/7 activity assay, SW480; type: cell-based; details: SW480, 25 μM, 24 hours, compared to CCD18Co cells
Protocol: (§1) SW480, HCT116, and CCD18Co cells were plated at 10^5 cells per well (96-well plates) for 24 hours prior to treatment. […] 24 hours post treatment, cells were lysed and caspase activity was measured using a caspase-3/7 activity kit (Apo-One Homogeneous caspase-3/7 assay, #G77905, Promega). Relative fluorescence units (RFU) were obtained by subtracting the unit values of the blank (control, without cells) from the experimental measured values.
(§2) Caspases are cysteine proteases that are generally activated in a given population of cells triggered by apoptotic stimuli.

GADD-153 = assay: Real time RT-PCR gene expression, GADD-153; type: cell-based; details: 25 μM, 24 hours; <0.5 significant decrease, >1.5 significant increase
Protocol: (§3) Real time reverse transcription-PCR analysis was performed according to the protocol provided with the SYBR Green PCR Master Mix Kit (Perkin Elmer Biosystems, Shelton, ST). […] The primers used for the RT-PCR reactions were [NT] and [NT].

surviving protein [2] = assay: Survivin immunofluorescence microscopy in SW480 cells; type: cell-based
caspase 3 = assay: Caspase 3 activity in cultured tumor cells; type: cell-based; details: 2.5 μM or 5.0 μM
Antigen KI-67 = assay: Real time RT-PCR gene expression, Antigen KI-67; type: cell-based; details: 25 μM, 24 hours; <0.5 significant decrease, >1.5 significant increase
Protocol: as §3

cultured tumor cells [3] = assay: Cell death of cultured tumor cells; type: cell-based; details: 5.0 μM
cultured tumor cells [4] = assay: FACS analysis of cells in G0, cultured tumor cells; type: cell-based; details: 5 μM
HLAC = assay: Real time RT-PCR gene expression, HLAC; type: cell-based; details: 25 μM, 24 hours; <0.5 significant decrease, >1.5 significant increase
Protocol: as §3

[5] = target: β-catenin/CBP interaction (Homo sapiens, UniProt Q92793); details: Emami et al., Cancer Cell, in press; cited from earlier work
β-catenin/CBP interaction, sequence (Q92793 whole entry): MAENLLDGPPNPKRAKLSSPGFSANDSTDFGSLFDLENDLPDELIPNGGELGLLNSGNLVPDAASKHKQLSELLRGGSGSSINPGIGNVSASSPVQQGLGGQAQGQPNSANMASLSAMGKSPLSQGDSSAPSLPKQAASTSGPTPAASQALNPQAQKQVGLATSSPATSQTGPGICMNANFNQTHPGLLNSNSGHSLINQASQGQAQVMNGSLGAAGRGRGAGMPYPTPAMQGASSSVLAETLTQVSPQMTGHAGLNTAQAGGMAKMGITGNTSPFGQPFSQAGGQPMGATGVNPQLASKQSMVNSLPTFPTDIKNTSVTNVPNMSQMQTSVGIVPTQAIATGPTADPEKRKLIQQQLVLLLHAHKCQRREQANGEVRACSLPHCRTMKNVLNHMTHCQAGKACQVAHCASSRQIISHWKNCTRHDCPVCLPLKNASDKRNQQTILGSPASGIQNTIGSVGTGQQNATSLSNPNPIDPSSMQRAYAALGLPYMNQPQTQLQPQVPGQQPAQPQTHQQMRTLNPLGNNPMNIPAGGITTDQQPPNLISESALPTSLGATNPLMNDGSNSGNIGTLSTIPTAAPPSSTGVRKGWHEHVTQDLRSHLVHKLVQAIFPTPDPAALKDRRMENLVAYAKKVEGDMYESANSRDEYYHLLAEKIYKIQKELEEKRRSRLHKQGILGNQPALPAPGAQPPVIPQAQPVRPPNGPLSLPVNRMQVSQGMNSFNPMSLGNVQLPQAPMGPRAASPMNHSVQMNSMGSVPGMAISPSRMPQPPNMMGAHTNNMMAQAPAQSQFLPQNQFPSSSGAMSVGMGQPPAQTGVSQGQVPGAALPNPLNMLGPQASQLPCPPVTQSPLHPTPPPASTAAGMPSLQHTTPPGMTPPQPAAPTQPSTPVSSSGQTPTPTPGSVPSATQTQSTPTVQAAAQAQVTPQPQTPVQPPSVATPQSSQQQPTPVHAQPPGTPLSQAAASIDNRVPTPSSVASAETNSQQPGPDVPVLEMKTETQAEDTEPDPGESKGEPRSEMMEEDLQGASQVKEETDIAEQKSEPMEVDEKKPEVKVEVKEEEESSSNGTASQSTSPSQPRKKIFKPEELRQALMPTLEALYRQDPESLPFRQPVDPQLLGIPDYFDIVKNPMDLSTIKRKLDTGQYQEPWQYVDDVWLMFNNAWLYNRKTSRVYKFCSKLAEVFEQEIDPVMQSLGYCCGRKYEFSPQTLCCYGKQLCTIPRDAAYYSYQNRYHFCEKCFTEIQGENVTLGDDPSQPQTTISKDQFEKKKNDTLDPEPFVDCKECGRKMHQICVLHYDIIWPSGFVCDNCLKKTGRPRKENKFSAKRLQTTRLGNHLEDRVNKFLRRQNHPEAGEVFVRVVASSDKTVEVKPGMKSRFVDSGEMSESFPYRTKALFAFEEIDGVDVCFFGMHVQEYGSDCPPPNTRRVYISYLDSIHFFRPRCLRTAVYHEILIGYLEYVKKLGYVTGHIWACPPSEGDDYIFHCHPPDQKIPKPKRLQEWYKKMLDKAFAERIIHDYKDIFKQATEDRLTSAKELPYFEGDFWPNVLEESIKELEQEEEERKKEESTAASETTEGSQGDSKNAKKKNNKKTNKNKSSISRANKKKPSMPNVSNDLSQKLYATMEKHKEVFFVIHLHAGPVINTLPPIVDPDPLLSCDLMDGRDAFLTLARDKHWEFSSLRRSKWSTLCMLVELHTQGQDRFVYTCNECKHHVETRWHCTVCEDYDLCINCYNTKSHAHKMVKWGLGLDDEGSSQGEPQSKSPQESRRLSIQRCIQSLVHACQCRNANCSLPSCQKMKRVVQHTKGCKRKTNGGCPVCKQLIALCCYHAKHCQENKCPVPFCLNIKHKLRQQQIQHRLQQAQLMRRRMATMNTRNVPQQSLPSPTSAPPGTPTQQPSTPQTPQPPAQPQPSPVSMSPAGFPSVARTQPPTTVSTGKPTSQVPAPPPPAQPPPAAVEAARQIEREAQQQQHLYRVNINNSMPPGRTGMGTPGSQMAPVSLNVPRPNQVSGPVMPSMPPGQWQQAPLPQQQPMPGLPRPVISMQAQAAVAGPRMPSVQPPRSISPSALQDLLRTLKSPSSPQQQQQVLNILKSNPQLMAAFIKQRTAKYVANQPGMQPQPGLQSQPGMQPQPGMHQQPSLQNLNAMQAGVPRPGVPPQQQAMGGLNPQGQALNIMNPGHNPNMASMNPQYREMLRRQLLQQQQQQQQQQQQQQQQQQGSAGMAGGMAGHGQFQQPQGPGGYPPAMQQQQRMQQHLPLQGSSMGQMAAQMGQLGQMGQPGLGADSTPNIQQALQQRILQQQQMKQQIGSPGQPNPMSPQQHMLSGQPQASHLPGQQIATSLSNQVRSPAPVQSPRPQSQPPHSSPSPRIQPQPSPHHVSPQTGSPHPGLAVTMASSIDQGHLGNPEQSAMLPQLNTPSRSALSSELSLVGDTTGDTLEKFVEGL

surviving promoter [6] = assay: ChIP assay on SW480 cells (survivin promoter occupancy); type: cell-based; details: SW480, 25 μM, 18 hours
[7] = target: β-catenin/p300 interaction (Homo sapiens, UniProt Q09472); details: Emami et al., Cancer Cell, in press; cited from earlier work
β-catenin/p300 interaction, sequence (Q09472 whole entry): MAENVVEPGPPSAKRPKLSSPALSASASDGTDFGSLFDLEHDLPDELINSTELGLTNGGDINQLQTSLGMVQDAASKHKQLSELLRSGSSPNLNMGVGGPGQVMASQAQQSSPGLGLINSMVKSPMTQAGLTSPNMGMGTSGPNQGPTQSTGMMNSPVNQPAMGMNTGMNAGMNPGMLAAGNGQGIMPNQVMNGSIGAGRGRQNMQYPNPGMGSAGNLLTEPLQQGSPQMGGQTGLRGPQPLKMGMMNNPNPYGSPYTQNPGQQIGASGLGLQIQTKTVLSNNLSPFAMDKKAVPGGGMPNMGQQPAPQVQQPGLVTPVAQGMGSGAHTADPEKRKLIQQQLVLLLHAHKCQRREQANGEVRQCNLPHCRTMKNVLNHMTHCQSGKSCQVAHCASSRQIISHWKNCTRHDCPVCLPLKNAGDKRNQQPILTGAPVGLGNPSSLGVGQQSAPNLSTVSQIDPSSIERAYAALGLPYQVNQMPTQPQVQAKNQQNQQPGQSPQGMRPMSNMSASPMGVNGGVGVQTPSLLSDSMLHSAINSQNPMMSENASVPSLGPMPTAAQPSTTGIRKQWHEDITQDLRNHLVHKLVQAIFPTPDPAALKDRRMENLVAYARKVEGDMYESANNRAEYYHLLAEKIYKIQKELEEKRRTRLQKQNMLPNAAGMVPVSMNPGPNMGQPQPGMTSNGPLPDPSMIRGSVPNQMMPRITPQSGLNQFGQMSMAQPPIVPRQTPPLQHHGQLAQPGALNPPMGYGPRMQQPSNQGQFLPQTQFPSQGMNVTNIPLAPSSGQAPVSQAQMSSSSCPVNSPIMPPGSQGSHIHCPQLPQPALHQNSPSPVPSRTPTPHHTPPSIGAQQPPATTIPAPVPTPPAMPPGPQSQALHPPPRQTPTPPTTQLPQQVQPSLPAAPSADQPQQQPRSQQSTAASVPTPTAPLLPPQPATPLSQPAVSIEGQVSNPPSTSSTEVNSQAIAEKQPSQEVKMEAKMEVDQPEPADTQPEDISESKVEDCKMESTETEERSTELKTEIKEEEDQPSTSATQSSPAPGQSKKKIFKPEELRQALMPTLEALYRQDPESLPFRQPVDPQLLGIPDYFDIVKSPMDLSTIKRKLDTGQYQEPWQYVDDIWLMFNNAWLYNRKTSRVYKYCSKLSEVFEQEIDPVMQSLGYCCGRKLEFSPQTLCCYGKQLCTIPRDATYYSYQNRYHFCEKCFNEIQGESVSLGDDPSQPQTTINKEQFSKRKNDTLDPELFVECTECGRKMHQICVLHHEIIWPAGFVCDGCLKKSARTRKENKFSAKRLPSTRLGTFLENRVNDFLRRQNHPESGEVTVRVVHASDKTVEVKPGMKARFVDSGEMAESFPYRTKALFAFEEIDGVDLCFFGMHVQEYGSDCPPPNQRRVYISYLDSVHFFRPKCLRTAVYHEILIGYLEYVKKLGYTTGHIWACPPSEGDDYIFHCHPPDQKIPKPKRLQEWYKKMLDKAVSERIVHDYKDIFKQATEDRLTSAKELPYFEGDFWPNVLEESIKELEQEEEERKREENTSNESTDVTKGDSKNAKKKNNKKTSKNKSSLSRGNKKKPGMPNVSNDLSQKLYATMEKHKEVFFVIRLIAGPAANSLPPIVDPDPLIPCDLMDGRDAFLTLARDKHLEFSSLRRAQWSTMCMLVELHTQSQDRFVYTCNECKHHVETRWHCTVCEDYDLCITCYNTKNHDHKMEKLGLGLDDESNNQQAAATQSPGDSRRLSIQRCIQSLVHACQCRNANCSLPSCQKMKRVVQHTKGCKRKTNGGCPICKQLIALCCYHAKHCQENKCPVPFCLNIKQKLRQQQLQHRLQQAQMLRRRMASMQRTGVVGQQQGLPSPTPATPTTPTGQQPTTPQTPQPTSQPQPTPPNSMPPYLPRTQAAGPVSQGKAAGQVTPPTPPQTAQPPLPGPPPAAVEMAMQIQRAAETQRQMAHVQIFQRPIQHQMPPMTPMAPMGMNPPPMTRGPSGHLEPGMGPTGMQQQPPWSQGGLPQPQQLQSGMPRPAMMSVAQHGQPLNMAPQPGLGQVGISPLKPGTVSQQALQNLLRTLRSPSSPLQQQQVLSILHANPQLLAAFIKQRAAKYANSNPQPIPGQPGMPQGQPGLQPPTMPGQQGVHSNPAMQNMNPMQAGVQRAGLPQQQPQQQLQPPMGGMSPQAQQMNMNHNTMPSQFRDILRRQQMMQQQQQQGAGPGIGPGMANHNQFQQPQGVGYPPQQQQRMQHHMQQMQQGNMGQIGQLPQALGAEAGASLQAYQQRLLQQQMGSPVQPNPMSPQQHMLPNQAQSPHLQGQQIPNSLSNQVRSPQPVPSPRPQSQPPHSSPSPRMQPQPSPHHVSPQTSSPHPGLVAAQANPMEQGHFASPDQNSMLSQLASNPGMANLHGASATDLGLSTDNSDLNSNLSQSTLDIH

surviving protein [8] = assay: Western blot analysis of survivin protein; type: cell-based; details: 10 μM or 25 μM
GADPH = assay: Real time RT-PCR gene expression, GADPH; type: cell-based; details: 25 μM, 24 hours; <0.5 significant decrease, >1.5 significant increase
Protocol: as §3

HCT116 cells = assay: Flow cytometric analysis (FACS) of cell cycle, HCT116; type: cell-based; details: HCT116, 25 μM, 24 hours
Protocol: (§4) For FACS analysis, approx. 5×10^6 cells from Compound D-treated or vehicle-treated were fixed with 70% chilled ethanol and stored at −20° C. for at least 30 minutes. The cells were washed once with 1×PBS and incubated with propidium iodine (PI) solution (85 μg/ml propidium iodine, 0.1% Nonidet P-40, 10 mg/ml RNAse) for 30 minutes at room temperature. 10,000 stained cells for each sample were acquired using Beckman Coulter EPICS XL-MCL Flow Cytometry and the percentage of cells in different phase of the cell cycle was determined by Expo32 ADC software (Coulter Corporation, Miami, Fla., 33196).
(§5) It has been shown that inhibition of the expression of the cyclin D1 gene causes arrest at the G1/S-phase of the cell cycle (Shintani et al., “Infrequent alternations of RB pathway (Rb-p16INK4A-cyclin D1) in adenoid cystic carcinoma of salivary glands,” Anticancer Res. 20:2169-75 (2000)). […] The cells were subsequently stained with propidium iodide (PI) and analyzed for DNA content by FACS cytofluorometry.

PCNA = assay: Real time RT-PCR gene expression, PCNA; type: cell-based; details: 25 μM, 24 hours; <0.5 significant decrease, >1.5 significant increase
Protocol: as §3

surviving promoter [9] = assay: Survivin promoter luciferase reporter in wild type, CBP+/−, p300+/− 3T3 cells; type: cell-based; details: with or without Wnt1
Text: A plasmid containing luciferase under the control of surviving promoter was constructed and transfected into wild type, CBP+/−, or p300+/−3T3 cells.

[10] = tested on: caspase-3/7 in HCT116 cells; assay: Caspase-3/7 activity assay, HCT116; type: cell-based; details: HCT116, 25 μM, 24 hours, compared to CCD18Co cells
Protocol: as §1, §2

survivin = assay: Real time RT-PCR gene expression, Survivin; type: cell-based; details: 25 μM, 24 hours; <0.5 significant decrease, >1.5 significant increase
Protocol: as §3

SW480 cells = assay: Flow cytometric analysis (FACS) of cell cycle, SW480; type: cell-based; details: SW480, 25 μM, 24 hours
Protocol: as §4, §5

[11] = tested on: PC-12 cells overexpressing PS-1/L286V; assay: Neurite outgrowth and differentiation of PC-12 PS-1/L286V cells; type: cell-based, Rat; details: PS-1/L286V mutant PC-12 cells, 10 μM plus NGF
Protocol: Cell Differentiation. Cell culture dishes were pre-coated overnight with 0.25 mg/ml collagen (Cohesion, CA), 10 μg/ml Poly-L-Lysine (Sigma-Aldrich, St. Louis, Mo.) and 12 μg/ml Polyethyleneimine (ICN, La Mesa, Calif.). Cells were cultured on coated dishes at 15,000 cells/cm^2, and differentiated into a neuron-like phenotype by incubation in medium with reduced serum (1% fetal bovine serum), containing 50 ng/ml nerve growth factor (NGF) (Sigma-Aldrich) for 10 days. NGF-containing medium was changed every 2-3 days.
(§6) Differentiated PC-12/L286V cells were treated with increasing concentrations of this compound for 4 hours. Transfection was then initiated after this treatment period.
Quantitation of Neurite Outgrowth. Cell counts were taken from six randomly chosen microscopic fields (10×). […] The number of cells with such outgrowths was then expressed as a percentage of the total number of cells. Values obtained were from duplicates of three independent experiments.

[12] = tested on: TCF/β-catenin reporter gene transcription; assay: TOPFLASH luciferase assay in differentiated PC-12 PS-1/L286V cells; type: cell-based, Rat; details: PS-1/L286V mutant PC-12 cells, 10 μM plus NGF
Protocol: as §6
Transfection. PC-12 cells were cultured and differentiated on 60-mm dishes. At the end of the 10-day differentiation period, cells were transfected with 2 μg reporter constructs, TOPFLASH and FOPFLASH, per 60-mm dish. Transfections were performed using Superfect (Qiagen) according to manufacturer's instructions.
Luciferase Assays. Cells were lysed, 6 hours after transfections, in 100 μl of Cell Culture Lysis Reagent (Promega, Madison, Wis.), and scraped into microcentrifuge tubes. Tubes were then centrifuged briefly (about 10 seconds) at 12000 rpm to pellet cell debris. Luciferase activity was measured on 20 μl of cell lysate and 100 μl substrate from the Luciferase Assay System (Promega). Luciferase activity was measure using Packard LumiCount. (Hewlett Packard). Quantitation of luciferase was performed in triplicates, and repeated in at least three independent experiments.

Ubiquitin = assay: Real time RT-PCR gene expression, Ubiquitin; type: cell-based; details: 25 μM, 24 hours; <0.5 significant decrease, >1.5 significant increase
Protocol: as §3

survivin promoter = assay: Survivin luciferase reporter in SW480 cells; type: cell-based; details: SW480 cells, various concentrations

In the case of `O=C1[C@H](Cc2ccc(O)cc2)N2C(=O)CCN(C(=O)NCc3ccccc3)[C@H]2CN1Cc1cccc2ccccc12` [Compound D], the caspase-3/7 activity [1] is reported as “specifically and significantly activated the caspase-3/7 pathway”, the “Ratio (Treated/DMSO Control) GADD-153” value (GADD-153) is reported as 7.00 and the “survivin protein (immunofluorescence microscopy)” value (surviving protein [2]) is reported as “little or no surviving protein was detected”. The “caspase 3 activity” value (caspase 3) was “activated the caspase 3 activity”, the “Ratio (Treated/DMSO Control) Antigen KI-67” value (Antigen KI-67) was 0.45 and the cell death (cultured tumor cells [3]) was “promote cell death”. The “number of cells in G0 (FACS)” value (cultured tumor cells [4]) was “increase the number of cells in G0”, the “Ratio (Treated/DMSO Control) HLAC” value (HLAC) was 1.01 and the “blocking of β-catenin/CBP interaction” value [5] was “selectively blocks the β-catenin/CBP interaction”. For the same compound, the “association of CBP, β-catenin, Tcf4 and acetylated histone with the survivin promoter (ChIP)” value (surviving promoter [6]) was “decreases the association of all these proteins with the surviving promoter”, the “blocking of β-catenin/p300 interaction” value [7] was “not the β-catenin/p300 interaction” and the “amount of survivin protein (Western blot)” value (surviving protein [8]) was “reduced the amount of the surviving protein”. The “Ratio (Treated/DMSO Control) GADPH” value (GADPH) was 0.98, the “cell cycle distribution (FACS, PI)” value (HCT116 cells) was “increased accumulation at G1/S-phase of the cell cycle” and the “Ratio (Treated/DMSO Control) PCNA” value (PCNA) was 0.33. The “survivin gene expression (promoter luciferase)” value (surviving promoter [9]) was “reduces expression of the surviving gene”, the caspase-3/7 activity [10] was “specifically and significantly activated the caspase-3/7 pathway” and the “Ratio (Treated/DMSO Control) Survivin” value (survivin) was 0.30. The “cell cycle distribution (FACS, PI)” value (SW480 cells) was “increased accumulation at G1/S-phase of the cell cycle”, the “percentage of cells bearing neurites greater than twice the length of the cell body” value [11] was “substantially increased the percentage of cells bearing neurites” and the “neurite outgrowth and differentiation” value ([11]; 10 days) was “essentially normal neurite outgrowth and differentiation”. The “TCF/β-catenin reporter gene transcription” value [12] was “decreased TCF/β-catenin reporter gene transcription”, the “Ratio (Treated/DMSO Control) Ubiquitin” value (Ubiquitin) was 0.98 and the “survivin expression (luciferase reporter)” value (survivin promoter) was “inhibit expression of surviving in SW480 cells”.
